Patent publication US20260200943A1, “COMPOUNDS FOR TREATING CANCER” (Genesis Therapeutics, Inc., priority 2022, published 2026)

Key:
Assay type in all cases: biochemical
[1] = target: T1, CDK1/CyclinB1 (Homo sapiens, UniProt P06493); test: CDK1/CyclinB1 ChEF Assay (AQT, Table C); conditions: 10xKm, read-out: CDK1/CCNB1 AQT AQT10xKm Ki: Average Ki
T1 construct: Wild-type, full length CDK1 in complex with wildtype, full length CyclinB1: Carna Cat #04-102; purchased Carna 04-102
Description: 16 nL of 1000× compound in 100% DMSO is added to a 384-well low volume, black assay plate. 12 μL of 1.3×CDK1/CyclinB1 (Wild-type, full length CDK1 in complex with wildtype, full length CyclinB1: Carna Cat #04-102) diluted in assay buffer (54 mM Hepes, 0.012% Brij-35, 10 mM MgCl2, 0.55 mM EGTA, 1% Glycerol, 0.02% BSA, and 1.2 mM DTT) is added to the plates on top of the compound and pre-incubated for 30 minutes at room temperature. Following the incubation, 4 uL of 4×Sox-chromophore (CSox) labeled peptide substrate (AQT0297, AssayQuant) & ATP diluted in assay buffer is added to the plate to initiate the reaction. The assay is incubated at room temperature for 120 min after initiation. The CSox peptide substrate is phosphorylated by CDK1/B1 upon ATP hydrolysis.
(§1) The fluorescent intensity measurement of the assay plate is read on a microplate reader once the assay is initiated and again at the completion of the assay. Phosphorylation of the CSox-based peptide substrate sensor results in an immediate increase in fluorescence. These raw fluorescence intensity values are normalized to calculate percent inhibition, which are fit to a four-parameter logistic curve and IC50 values are calculated. IC50 values are converted to Ki using substrate, KM^app values, and the Cheng-Prusoff equation.

[2] = target: T1, CDK1/CyclinB1; test: CDK1/CyclinB1 ChEF Assay (Table A); conditions: read-out: CDK1/CCNB1 ChEF Ki: Average Ki;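 note: Ki reported in nM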
Description: 500 nL of 50× compound in 100% DMSO is added to a 384-well low volume, white assay plate. 19.5 μL of 1.3×CDK1/CyclinB1 (Wild-type, full length CDK1 in complex with wildtype, full length CyclinB1: Carna Cat #04-102) diluted in assay buffer (50 mM Hepes, 0.01% Brij-35, 10 mM MgCl2, 0.5 mM EGTA, 1% Glycerol, and 1.2 mM DTT) is added to the plates on top of the compound and pre-incubated for 30 minutes at room temperature. Following the incubation, 5 μL of 5×Sox-chromophore (CSox) labeled peptide substrate (AQT0297, AssayQuant) & ATP diluted in assay buffer is added to the plate to initiate the reaction. The assay is incubated at room temperature for 30 min after initiation. The CSox peptide substrate is phosphorylated by CDK1/B1 upon ATP hydrolysis.
as §1, with “assay plate for all assays described above is read” for “assay plate is read”

[3] = target: T2, CDK2/CyclinA2 (Homo sapiens, UniProt P24941); test: CDK2/Cyclin A2 Mobility Shift Assay (Caliper, Table B); conditions: for Ki: Caliper mobility shift, 10xKm, read-out: CDK2/CCNA2 Caliper 10xKm Ki: Average Ki
T2 construct: Wild-type, full length CDK2 in complex with wildtype, full length CyclinA2: Carna Cat #04-103; purchased Carna 04-103
Description: 10 nL of 2000× compound in 100% DMSO is added to a 384-well polypropylene assay plate. 15 μL of 1.3×CDK2/A2 and 1.3× fluorescent substrate (Wild-type, full length CDK2 in complex with wildtype, full length CyclinA2: Carna Cat #04-103 and FL-Peptide 18: PerkinElmer Cat #760362) diluted in kinase buffer (50 mM Hepes, 0.01% Brij-35, 10 mM MgCl2, 1 mM EGTA, 0.05% BSA, and 2 mM DTT) is added to the plates on top of the compound, mixed, and pre-incubated for 30 minutes at room temperature. The fluorescently labeled peptide substrate is phosphorylated by CDK2/A2 upon ATP hydrolysis. Following the incubation, 5 μL of 4×ATP diluted in kinase buffer is added to the plate to initiate the reaction. Following the 30-minute incubation, the reaction is stopped by adding 75 μL of stopping buffer containing 0.5 M EDTA.
(§2) The assay plate is then read on a Lab Chip EZ Reader which separates the fluorescently labeled substrate and product peptides through a mobility difference. The phosphorylation of the substrate imparts a negative charge, which allows differences in separation as both are pulled through the microfluidic chip. The ratio of substrate and product values are used to generate percent conversion. These raw percent conversion values are normalized to calculate percent inhibition, which are fit to a four-parameter logistic curve and IC50 values are calculated. IC50 values are converted to Ki through using substrate and Km^app values, and the Cheng-Prusoff equation.

[4] = target: T3, CDK6/CyclinD3 (Homo sapiens, UniProt Q00534); test: CDK6/Cyclin D3 Mobility Shift Assay (Caliper, Table B); conditions: read-out: CDK6/CCND3 Caliper Ki: Average Ki
T3 construct: Wild-type, full length CDK6 in complex with wildtype, full length CyclinD3: Carna Cat #04-107; purchased Carna 04-107
Description: 10 nL of 2000× compound in 100% DMSO is added to a 384-well polypropylene assay plate. 15 μL of 1.3×CDK6/D3 and 1.3× fluorescent substrate (Wild-type, full length CDK6 in complex with wildtype, full length CyclinD3: Carna Cat #04-107 and FL-Peptide 34: PerkinElmer Cat #760643) diluted in kinase buffer (50 mM Hepes, 0.01% Brij-35, 10 mM MgCl2, 1 mM EGTA, 0.05% BSA, and 2 mM DTT) is added to the plates on top of the compound, mixed, and pre-incubated for 30 minutes at room temperature. The fluorescently labeled peptide substrate is phosphorylated by CDK6/D3 upon ATP hydrolysis. Following the incubation, 5 μL of 4×ATP diluted in kinase buffer is added to the plate to initiate the reaction. Following the 30-minute incubation, the reaction is stopped by adding 75 μL of stopping buffer containing 0.5 M EDTA.
as §2

T1 sequence (P06493 whole entry): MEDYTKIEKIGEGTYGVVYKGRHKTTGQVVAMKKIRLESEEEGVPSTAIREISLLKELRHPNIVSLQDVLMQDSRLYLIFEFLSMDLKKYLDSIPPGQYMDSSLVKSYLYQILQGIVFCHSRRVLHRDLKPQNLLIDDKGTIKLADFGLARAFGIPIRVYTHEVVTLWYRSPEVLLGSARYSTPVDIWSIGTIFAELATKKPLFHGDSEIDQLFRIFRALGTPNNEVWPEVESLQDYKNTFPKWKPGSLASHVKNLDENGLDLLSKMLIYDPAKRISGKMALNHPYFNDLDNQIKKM
T1 sequence (P14635 whole entry partner): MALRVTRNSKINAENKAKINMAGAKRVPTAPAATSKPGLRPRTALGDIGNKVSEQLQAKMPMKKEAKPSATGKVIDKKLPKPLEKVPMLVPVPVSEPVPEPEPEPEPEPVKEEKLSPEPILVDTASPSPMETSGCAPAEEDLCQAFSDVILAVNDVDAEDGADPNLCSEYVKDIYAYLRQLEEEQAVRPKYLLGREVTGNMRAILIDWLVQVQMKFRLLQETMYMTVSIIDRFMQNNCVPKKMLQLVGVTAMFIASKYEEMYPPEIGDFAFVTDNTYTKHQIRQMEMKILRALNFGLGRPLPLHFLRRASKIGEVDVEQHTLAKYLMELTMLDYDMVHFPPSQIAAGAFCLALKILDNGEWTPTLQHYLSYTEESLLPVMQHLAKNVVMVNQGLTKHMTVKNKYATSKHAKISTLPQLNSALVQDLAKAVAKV
T3 sequence (Q00534 whole entry): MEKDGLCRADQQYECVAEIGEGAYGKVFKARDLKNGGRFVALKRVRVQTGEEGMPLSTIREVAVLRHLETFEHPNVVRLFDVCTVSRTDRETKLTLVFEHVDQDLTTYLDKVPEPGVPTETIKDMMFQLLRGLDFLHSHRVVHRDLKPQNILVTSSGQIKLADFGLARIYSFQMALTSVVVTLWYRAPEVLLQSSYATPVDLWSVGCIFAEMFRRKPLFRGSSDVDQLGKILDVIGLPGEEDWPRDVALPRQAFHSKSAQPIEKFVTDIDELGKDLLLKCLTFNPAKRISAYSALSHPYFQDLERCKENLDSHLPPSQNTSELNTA
T3 sequence (P30281 whole entry partner): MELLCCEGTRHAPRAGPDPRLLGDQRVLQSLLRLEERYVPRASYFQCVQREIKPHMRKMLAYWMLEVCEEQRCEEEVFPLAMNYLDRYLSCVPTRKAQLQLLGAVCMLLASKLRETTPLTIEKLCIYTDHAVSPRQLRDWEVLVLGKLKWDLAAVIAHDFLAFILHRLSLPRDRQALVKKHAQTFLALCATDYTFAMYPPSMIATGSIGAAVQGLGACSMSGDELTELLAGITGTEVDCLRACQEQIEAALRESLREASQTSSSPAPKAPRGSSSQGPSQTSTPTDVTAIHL

Structure (SMILES)	Ki [1] [nM]	Ki [2] [nM]	Ki [3] [nM]	CDK2/CCNA2 Caliper 10xKm Ki: CDK2/A2 Selectivity over CDK1/B1 [3]	CDK2/CCNA2 Caliper 10xKm Ki: CDK2/A2 Selectivity over CDK9 [3]	CDK2/CCNA2 Caliper 10xKm Ki: CDK2/A2 Selectivity over CDK6/D3 [3]	Ki [4] [nM]
NS(=O)(=O)c1ccc2cc1OCCCCCNC(=O)O[C@@H]1CC[C@@H](C1)c1cnc(nc1)N2 (stereo in doubt) [Compound 105, rel-(2S,5R)-7-oxo-6,14-dioxa-8,20,22,25-tetraazatetracyclo[19.2.2.1^{2,5}.1^{15,19}]heptacosa-1(23),15,17,19(26),21,24-hexaene-16-sulfonamide]	1 to 25						
O=C1NCCOCCNS(=O)(=O)c2ccc(c(F)c2)Nc2cc([nH]n2)[C@H]2CC[C@H](C2)O1 [Compound 89, (1^1S,1^3R,Z)-4^2-Fluoro-2^1H-9,14-dioxa-5-thia-3,6,12-triaza-2(5,3)-pyrazola-4(1,4)-benzena-1(1,3)-cyclopentanacyclotetradecaphan-13-one 5,5-dioxide]		1 to 25	1 to 25	A (A>10)	A (A>10)		
O=C1NCCCCCNS(=O)(=O)c2ccc(c(F)c2)Nc2cc([nH]n2)[C@H]2CC[C@H](C2)O1 [Compound 90, (1^1S,1^3R,Z)-4^2-fluoro-2^1H-14-oxa-5-thia-3,6,12-triaza-2(5,3)-pyrazola-4(1,4)-benzena-1(1,3)-cyclopentanacyclotetradecaphan-13-one 5,5-dioxide]		1 to 25	1 to 25	A (A>10)	A (A>10)		
O=C1NCCCCCCCNS(=O)(=O)c2ccc(c(F)c2)Nc2cc([nH]n2)[C@H]2CC[C@H](C2)O1 [Compound 92]		< 1	< 1	A (A>10)	A (A>10)	A (A>10)	25 to 100
O=C1NCCCn2cc(cn2)S(=O)(=O)N2CCC(CC2)Nc2cc([nH]n2)[C@H]2CC[C@H](C2)O1 [Compound 95, (1^1S, 1^3R,2^4Z,6^4E)-2^1H,6^1H-12-oxa-5-thia-3,10-diaza-4(4,1)-piperidina-2(5,3),6(4,1)-dipyrazola-1(1,3)-cyclopentanacyclododecaphan-11-one 5,5-dioxide]		≥ 100	25 to 100	B (5≤B<10)	B (5≤B<10)		
O=C1NCCCCCn2cc(cn2)S(=O)(=O)N2CCC(CC2)Nc2cc([nH]n2)[C@H]2CC[C@H](C2)O1 [Compound 96, (1^1S,1^3R,2^4Z,6^4E)-2^1H,6^1H-14-oxa-5-thia-3,12-diaza-4(4,1)-piperidina-2(5,3),6(4,1)-dipyrazola-1(1,3)-cyclopentanacyclotetradecaphan-13-one 5,5-dioxide]		25 to 100	1 to 25	A (A>10)	A (A>10)		
O=C1NCCCCCCn2cc(cn2)S(=O)(=O)N2CCC(CC2)Nc2cc([nH]n2)[C@H]2CC[C@H](C2)O1 [Compound 97, (1^1S,1^3R,2^4Z,6^4E)-2^1H,6^1H-15-oxa-5-thia-3,13-diaza-4(4,1)-piperidina-2(5,3),6(4,1)-dipyrazola-1(1,3)-cyclopentanacyclopentadecaphan-14-one 5,5-dioxide]	1 to 25	1 to 25	1 to 25	A (A>10)	A (A>10)		
O=C1NCCCNS(=O)(=O)c2ccc(c(F)c2)Nc2cc([nH]n2)[C@H]2CC[C@H](C2)O1 [Compound 98, (1^1S, 1^3R,Z)-4^2-fluoro-2^1H-12-oxa-5-thia-3,6, 10-triaza-2(5,3)-pyrazola-4(1,4)-benzena-1(1,3)-cyclopentanacyclododecaphan-11-one 5,5-dioxide]		≥ 100	25 to 100	A (A>10)	A (A>10)		
O=C1NCCCCNS(=O)(=O)c2ccc(c(F)c2)Nc2cc([nH]n2)[C@H]2CC[C@H](C2)O1 [Compound 99, (1^1S, 1^3R,Z)-4^2-fluoro-2^1H-13-oxa-5-thia-3,6,11-triaza-2(5,3)-pyrazola-4(1,4)-benzena-1(1,3)-cyclopentanacyclotridecaphan-12-one 5,5-dioxide]		1 to 25	< 1	A (A>10)	A (A>10)	A (A>10)	25 to 100
CN1CCNC(=O)O[C@@H]2CC[C@@H](C2)c2cc(n[nH]2)Nc2ccc(cc2F)S(=O)(=O)NCC1 [Compound 100, (1^1S, 1^3R,Z)-4^2-fluoro-9-methyl-2^1H-14-oxa-5-thia-3,6,9,12-tetraaza-2(5,3)-pyrazola-4(1,4)-benzena-1(1,3)-cyclopentanacyclotetradecaphan-13-one 5,5-dioxide]		25 to 100	1 to 25	A (A>10)	A (A>10)		
CC1(C)CCCNS(=O)(=O)c2ccc(c(F)c2)Nc2cc([nH]n2)[C@H]2CC[C@H](C2)OC(=O)N1 [Compound 101, (1^1S,1^3R,Z)-4^2-fluoro-10,10-dimethyl-2^1H-13-oxa-5-thia-3,6,11-triaza-2(5,3)-pyrazola-4(1,4)-benzena-1(1,3)-cyclopentanacyclotridecaphan-12-one 5,5-dioxide]		25 to 100	1 to 25	A (A>10)	A (A>10)		
